# Read-outs that look alike come from different tables or passages of the source.
# Experiments:
# [1] = system: C57BL/6 mice, pressure overload by transverse aortic constriction; assay: TAC-induced cardiac hypertrophy, remodeling and fibrosis (heart weight/tibia length, histology); assay type: in vivo, mouse
# From the text: TAC induced marked heart chamber and cellular hypertrophy (+100% by 3-weeks) that progressed to chamber dilation with reduced fractional shortening after 9 weeks. […] TAC induced a time-dependent increase in myocardial fibrosis and myocyte hypertrophy and both were suppressed by PDE5A inhibition (FIG. 1C, e.g. 67% reduction in fibrosis in 9-week hearts, p<0.0001).
# Pressure overload was produced by transverse aortic constriction.
# Hearts were fixed with 10% formalin overnight, then embedded in paraffin, sectioned at 5 μm thickness and stained with PAS methenamine. Cardiomyocyte diameter and interstitial collagen fraction were determined using computer-assisted image analysis (Adobe Photoshop 5.0, NIH Image J), with the observer blinded as to tissue source. At least 4-5 different hearts, with five separate fields of cells (total 50-70 cells for each heart) were quantified for cellular analysis.
# [2] = system: cGMP; assay: cGMP FRET imaging in neonatal rat myocytes; assay type: cell-based
# Description: Ventricular myocytes from 1-2 days old Sprague Dawley rats (CharlesRiver Lab, MA) were prepared and transfected with the vector carrying the cGMP sensor cygnet-2.1^77 in which EYFP was substituted with the less pH sensitive variant citrine^89, and imaged eighteen-twenty-four hours after transfection as described^90. Images (50-80 ms exposure) were acquired every 10 seconds using custom software and processed by Imagej (NIH, MD). FRET was the change in 480 nm/545 nm emission intensities (ΔR) upon 430 nm excitation^91 expressed as percent change over the basal intensity (R0). Cells were bathed in HEPES buffered Ringer's modified saline (1 mmol/L CaCl2), at room temperature (20-22° C.).
# [3] = system: AktTG and NTG mice; assay: Transgenic mice with cardiac-targeted Akt overexpression (AktTG) and NTG controls: pressure-volume analysis, echo, heart weight; assay type: in vivo, mouse; settings: for EDP / EDV / EF / ESP / ESV / Eesn / HR / PMXI / Tau / dP/dtmax/IP / dPdtmax / dPdtmin: sildenafil 100 mg/kg/day
# Description: In vehicle-treated animals (age 4-5 months), AktTG hearts were larger and had reduced heart function (FIG. 10E and Table 3). […]
# Transthoracic two-dimensional guided M-mode echocardiography was performed in non-anesthetized mice. Measurements were done using an echocardiography system, the SEQUOIA C256 (Siemens, Munich, Del.) with the 15 MHz linear-array transducer. Intact heart hemodynamic analysis was performed as described^90. These studies employed a four-electrode pressure-volume catheter (model SPR-839, Millar Instruments) placed through the left ventricular apex in the open chest anesthetized animal and positioned along the longitudinal axis to record chamber volume by impedance and pressure by micromanometry.
# All hemodynamic data were recorded using custom developed software, digitizing signals at 2 KHz. End-diastolic and end-systolic volumes were the average of volumes measured during isovolumic contraction and relaxation, respectively. ESP was the pressure at maximal chamber elastance (P/V ratio)^1. EDP was the diastolic pressure at the lower right hand corner of the pressure-volume loop. Cardiac output was determined from a perivascular flow probe (Transonics, Ithica, N.Y.) placed around the thoracic aorta. Ea was equal to the ratio of end-systolic pressure divided by stroke volume. The volume catheter signal was calibrated for both gain and offset. Gain was determined by setting the catheter-derived cardiac output (equal to pressure-volume loop width times heart rate) to that obtained from the calibrated flow probe value. Offset was determined using the hypertonic saline method Ventricular power was equal to the instantaneous product of pressure times flow, and the peak power was divided by EDV to obtain the power index PMXI^79. […] The slope of this relation Ees was normalized by heart mass and expressed per gm heart mass. Msw was derived from the linear relation between stroke work and EDV from the same set of variably loaded cardiac cycles used to derive Eesn, and is another load-independent assessment of systolic contractile function^4. Tau was obtained from the model: P=Po+ae^−t/□ . . . fitting data during isovolumic relaxation. dP/dt was derived from a digital filter (5-point weighted slope). PFR/EDV was derived from the maximal first derivative of the volume signal during early diastole, divided by EDV.
# [4] = system: C57BL/6 mice, pressure overload by transverse aortic constriction; assay: Serial echocardiography in conscious mice with transverse aortic constriction (TAC); assay type: in vivo, mouse; settings: for EF (ejection fraction) / HR (heart rate) / LV Dim (dia) / LV Dim (sys) / LV Mass (estimated, truncated ellipsoid model) / Wall Thickness: sildenafil treated
# [5] = system: ERK1/2; assay: ERK1/2 activation in TAC hearts (Western blot); assay type: in vivo, mouse
# Description: Protein was prepared from snap-frozen heart tissue using extraction buffer as described previously^90. Antibodies included calcineurin (1:2000 dilution, BD Transduction Laboratories (San Diego, Calif.), GSK3β, Ser9-phospho-GSK313, Akt, Ser473-phospho-Akt, ERK, Thr202/Thr204-phospho-ERK (1:1000 dilution, Cell Signaling Technology, Beverly, Mass.). Primary antibody binding was visualized by horse radish peroxidase-conjugated secondary antibodies and enhanced chemiluminescence (Pierce, Rockford, Ill.).
# [6] = system: PI3Kα; assay: PI3Kα activity in TAC hearts; assay type: in vivo, mouse; settings: 3 week TAC
# Description: PI3Kα activity was assessed by Elisa assay following immunoprecipitation of PI3K (Seize X IP Kit, Pierce) using a p85α monoclonal antibody (Cell Signaling), with activity measured by fluorescence polarization (Molecular Devices, Perkin-Elmer Victor 3 plate reader). Akt activity (IP with s473-pAkt Ab, GSK-3 fusion protein substrate) was performed using a commercial kit (Cell Signaling Technology, Beverly, Mass.). PKG-1 activity was assayed by calorimetric analysis, CycLex (Clinisciences, Montrouge, FR) from whole heart lysates.
# [7] = 1-week TAC, then 2 weeks treatment
smiles,measurement,setting,value
CCCc1nn(C)c2c(=O)[nH]c(-c3cc(S(=O)(=O)N4CCN(C)CC4)ccc3OCC)nc12 [sildenafil],"myocyte hypertrophy and interstitial fibrosis, established hypertrophy",[1]; [7],both reversed towards baseline
same,reduction in fibrosis,[1]; 9-week TAC hearts,67%
same,TAC-induced hypertrophy and chamber remodeling,"[1]; TAC mice, concurrent oral treatment",inhibited
same,reduction of cardiac hypertrophy (heart weight/tibia length),"[1]; TAC mice, sildenafil 100 mg/kg/day",more than 50%
same,effect on sham-operated controls,[1]; sham-operated mice,no impact
same,cGMP FRET signal,[2],enhanced the FRET signal
same,cGMP FRET signal,[2]; listed as SIL,raised cellular cGMP
same,"progressive hypertrophy in AktTG mice (serial echo, heart weight/tibia length)","[3]; AktTG, 6-week period",did not blunt progressive hypertrophy
same,EDP,[3]; AktTG,8.9 ± 1.1
same,EDV,[3]; AktTG,57.6 ± 5.4
same,EF,[3]; AktTG,31.8 ± 2.1
same,ESP,[3]; AktTG,90.1 ± 0.9
same,ESV,[3]; AktTG,39.6 ± 4.5
same,Eesn,[3]; AktTG,21.5 ± 2.9
same,HR,[3]; AktTG,569.5 ± 47.4
same,PMXI,[3]; AktTG,17.8 ± 1.9
same,Tau,[3]; AktTG,10.0 ± 0.6
same,dP/dtmax/IP,[3]; AktTG,128.5 ± 2.9
same,dPdtmax,[3]; AktTG,6993 ± 156
same,dPdtmin,[3]; AktTG,−6241 ± 289
same,EDP,[3]; NTG,4.9 ± 1.2
same,EDV,[3]; NTG,44.5 ± 4.9
same,EF,[3]; NTG,56.7 ± 3.5
same,ESP,[3]; NTG,96.7 ± 4.7
same,ESV,[3]; NTG,19.4 ± 3.0
same,Eesn,[3]; NTG,39.9 ± 1.5
same,HR,[3]; NTG,511.6 ± 31.4
same,PMXI,[3]; NTG,25.9 ± 2.2
same,Tau,[3]; NTG,7.4 ± 0.6
same,dP/dtmax/IP,[3]; NTG,176.4 ± 14.8
same,dPdtmax,[3]; NTG,10133 ± 791
same,dPdtmin,[3]; NTG,−9267 ± 417
same,"serial echocardiography, established hypertrophy",[4]; [7],"gradual decline in LV mass and wall thickness, with preservation of systolic ejection"
same,EF (ejection fraction),[4]; Control (sham),96.5 ± 0.2%
same,HR (heart rate),[4]; Control (sham),634 ± 9 min⁻¹
same,LV Dim (dia),[4]; Control (sham),2.87 ± 0.09 mm
same,LV Dim (sys),[4]; Control (sham),0.89 ± 0.05 mm
same,"LV Mass (estimated, truncated ellipsoid model)",[4]; Control (sham),59.1 ± 5.6 mg
same,Wall Thickness,[4]; Control (sham),0.71 ± 0.02 mm
same,EF (ejection fraction),[4]; TAC-3 wks,93.4 ± 1.1 %
same,HR (heart rate),[4]; TAC-3 wks,595 ± 7 min⁻¹
same,LV Dim (dia),[4]; TAC-3 wks,3.09 ± 0.06 mm
same,LV Dim (sys),[4]; TAC-3 wks,1.17 ± 0.08 mm
same,"LV Mass (estimated, truncated ellipsoid model)",[4]; TAC-3 wks,82.2 ± 5.0 mg
same,Wall Thickness,[4]; TAC-3 wks,0.82 ± 0.02 mm
same,EF (ejection fraction),[4]; TAC-6 wks,74.9 ± 7.1 %
same,HR (heart rate),[4]; TAC-6 wks,617 ± 18 min⁻¹
same,LV Dim (dia),[4]; TAC-6 wks,3.67 ± 0.24 mm
same,LV Dim (sys),[4]; TAC-6 wks,2.24 ± 0.37 mm
same,"LV Mass (estimated, truncated ellipsoid model)",[4]; TAC-6 wks,115.6 ± 14.2 mg
same,Wall Thickness,[4]; TAC-6 wks,0.86 ± 0.03 mm
same,EF (ejection fraction),[4]; TAC-9 wks,71.7 ± 9.9 %
same,HR (heart rate),[4]; TAC-9 wks,608 ± 25 min⁻¹
same,LV Dim (dia),[4]; TAC-9 wks,4.14 ± 0.36 mm
same,LV Dim (sys),[4]; TAC-9 wks,2.54 ± 0.57 mm
same,"LV Mass (estimated, truncated ellipsoid model)",[4]; TAC-9 wks,142.5 ± 21.5 mg
same,Wall Thickness,[4]; TAC-9 wks,0.86 ± 0.03 mm
same,ERK1/2 activation (phospho/total),[5]; 1-week TAC,suppressed
same,ERK1/2 activation (phospho/total),[5]; 9-weeks TAC,no demonstrable effect
same,TAC-increased PI3Kα activity,[6],suppressed

# Source: US8299083B2, “PDE5 inhibitor compositions and methods for treating cardiac indications” (The Johns Hopkins University, priority 2004, dated 2012)
